Target: T1, human Cereblon WT GST-tagged protein (Homo sapiens, UniProt Q96SW2)
T1 construct: purchased CISBIO 64BDCRBNPEH
Assay: CRBN binding, HTRF CEREBLON BINDING kit
Conditions: CRBN binding, HTRF CEREBLON BINDING kit
Outline: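 HTRF competition in which test compounds displace a Thalidomide-Re tracer from GST-tagged human Cereblon WT, detected with a GST Eu antibody. Incubation lasted 3 hours at room temperature, with emission read at 620 and 665 nm. Inhibition rate was derived from 665/620 ratios relative to blank and solvent control wells.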

T1 sequence (Q96SW2 whole entry): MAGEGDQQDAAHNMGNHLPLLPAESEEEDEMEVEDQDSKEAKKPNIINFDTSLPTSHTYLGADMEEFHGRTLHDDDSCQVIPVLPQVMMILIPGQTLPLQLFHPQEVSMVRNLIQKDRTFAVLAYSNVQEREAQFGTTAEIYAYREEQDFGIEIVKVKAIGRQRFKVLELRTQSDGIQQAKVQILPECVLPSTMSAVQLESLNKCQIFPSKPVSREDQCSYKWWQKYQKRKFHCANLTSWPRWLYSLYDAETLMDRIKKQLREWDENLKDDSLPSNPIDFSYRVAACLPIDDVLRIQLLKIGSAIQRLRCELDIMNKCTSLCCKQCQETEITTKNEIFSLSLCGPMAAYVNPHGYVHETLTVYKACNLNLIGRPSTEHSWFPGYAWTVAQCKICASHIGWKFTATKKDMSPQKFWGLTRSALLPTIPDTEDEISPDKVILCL

Compound | IC50 [nM]
COc1cc2nn(C3CCN(Cc4cccc(N5CCC(=O)NC5=O)c4)CC3)cc2cc1NC(=O)c1cccc(C(F)(F)F)c1 [GT-04750, N-(2-(1-(3-(2,4-dioxotetrahydropyrimidin-1(2H)-yl)benzyl)piperidin-4-yl)-6-methoxy-2H-indazol-5-yl)-3-(trifluoromethyl)benzamide] | 1000 to 1900
O=C1CCC(c2ccc(CN3CCN(c4ccc(-c5cc(F)c6c(c5)C(=O)N(C(C(=O)Nc5nccs5)c5ncn7c5CCC7)C6)cc4)CC3)nc2)C(=O)N1 (centres unmarked) [GT-07381, 2-(6,7-dihydro-5H-pyrrolo[1,2-c]imidazol-1-yl)-2-(6-(4-(4-((5-(2,6-dioxopiperidin-3-yl)pyridin-2-yl)methyl)piperazin-1-yl)phenyl)-4-fluoro-1-oxoisoindolin-2-yl)-N-(thiazol-2-yl)acetamide] | < 500
O=C1CCC(c2ccc(CN3C[C@@H]4C[C@H]3CN4c3ccc(-c4cc(F)c5c(c4)C(=O)N(C(C(=O)Nc4nccs4)c4ncn6c4CCC6)C5)cc3)cc2)C(=O)N1 (stereo partly drawn) [GT-05115, 2-(6,7-dihydro-5H-pyrrolo[1,2-c]imidazol-1-yl)-2-(6-(4-((1S,4S)-5-(4-(2,6-dioxopiperidin-3-yl)benzyl)-2,5-diazabicyclo[2.2.1]heptan-2-yl)phenyl)-4-fluoro-1-oxoisoindolin-2-yl)-N-(thiazol-2-yl)acetamide] | 500 to 1000
CN(Cc1cc(N2CCC(=O)NC2=O)ncc1F)C1CCN(c2ccc(-c3cc(F)c4c(c3)C(=O)N(C(C(=O)Nc3nccs3)c3ncn5c3CCC5)C4)cc2)CC1 (centres unmarked) [GT-07382, 2-(6,7-dihydro-5H-pyrrolo[1,2-c]imidazol-1-yl)-2-(6-(4-(4-(((2-(2,4-dioxotetrahydropyrimidin-1(2H)-yl)-5-fluoropyridin-4-yl)methyl)(methyl)amino)piperidin-1-yl)phenyl)-4-fluoro-1-oxoisoindolin-2-yl)-N-(thiazol-2-yl)acetamide] | 500 to 1000
O=C1CCC(c2ccc(CN3CCN(c4ccc(-c5cc(F)c6c(c5)C(=O)N(C(C(=O)Nc5nccs5)c5ncn7c5CCC7)C6)cc4)CC3)cc2)C(=O)N1 (centres unmarked) [GT-06163, 2-(6,7-dihydro-5H-pyrrolo[1,2-c]imidazol-1-yl)-2-(6-(4-(4-(4-(2,6-dioxopiperidin-3-yl)benzyl)piperazin-1-yl)phenyl)-4-fluoro-1-oxoisoindolin-2-yl)-N-(thiazol-2-yl)acetamide] | 500 to 1000
O=C1CCN(c2ccc(CN3CCC(n4cc(NC(=O)c5coc(-c6ccnc(NCC7CC7)c6)n5)c(C(F)F)n4)CC3)nc2)C(=O)N1 [GT-04958, 2-(2-((cyclopropylmethyl)amino)pyridin-4-yl)-N-(3-(difluoromethyl)-1-(1-((5-(2,4-dioxotetrahydropyrimidin-1(2H)-yl)pyridin-2-yl)methyl)piperidin-4-yl)-1H-pyrazol-4-yl)oxazole-4-carboxamide] | 500 to 1000
O=C1CCN(c2cccc(CN3CCN(c4ccc(Nc5ncc6nc(Nc7ccccc7)n(C7CCCC7)c6n5)cc4)CC3)c2)C(=O)N1 [GT-05838, 1-(3-((4-(4-((9-cyclopentyl-8-(phenylamino)-9H-purin-2-yl)amino)phenyl)piperazin-1-yl)methyl)phenyl)dihydropyrimidine-2,4(1H,3H)-dione] | 500 to 1000
CN(C)C(=O)c1cc2cnc(Nc3ccc(N4CCC(N(C)Cc5ccc(N6CCC(=O)NC6=O)cc5)CC4)cn3)nc2n1C1CCCC1 [GT-06491, 7-cyclopentyl-2-((5-(4-((4-(2,4-dioxotetrahydropyrimidin-1(2H)-yl)benzyl)(methyl)amino)piperidin-1-yl)pyridin-2-yl)amino)-N,N-dimethyl-7H-pyrrolo[2,3-d]pyrimidine-6-carboxamide] | 500 to 1000
CN(Cc1cccc(N2CCC(=O)NC2=O)c1)C1CCN(c2ccc(Nc3ncc4nc(Nc5ccccc5)n(C5CCCC5)c4n3)cc2)CC1 [GT-05870, 1-(3-(((1-(4-((9-cyclopentyl-8-(phenylamino)-9H-purin-2-yl)amino)phenyl)piperidin-4-yl)(methyl)amino)methyl)phenyl)dihydropyrimidine-2,4(1H,3H)-dione] | 500 to 1000
O=C1CCC(c2ccc(CN3CCN(C4CCN(c5ccc(Nc6ncc7nc(Nc8ccccc8)n(C8CCCC8)c7n6)cc5)CC4)CC3)cc2)C(=O)N1 (centres unmarked) [GT-05915, 3-(4-((4-(1-(4-((9-cyclopentyl-8-(phenylamino)-9H-purin-2-yl)amino)phenyl)piperidin-4-yl)piperazin-1-yl)methyl)phenyl)piperidine-2,6-dione] | < 500
O=C1CCN(c2cccc(CN3CCN(Cc4ccc5c(c4)nc(NC(=O)c4cccc(C(F)(F)F)c4)n5[C@H]4CC[C@@H](CO)CC4)CC3)c2)C(=O)N1 [GT-04977, N-(5-((4-(3-(2,4-dioxotetrahydropyrimidin-1(2H)-yl)benzyl)piperazin-1-yl)methyl)-1-((1s,4s)-4-(hydroxymethyl)cyclohexyl)-1H-benzo[d]imidazol-2-yl)-3-(trifluoromethyl)benzamide] | 500 to 1000
COc1cc2nn(C3CCN(Cc4ccc(C5CCC(=O)NC5=O)c(F)c4)CC3)cc2cc1NC(=O)c1cccc(C(F)(F)F)c1 (centres unmarked) [GT-04748, N-(2-(1-(4-(2,6-dioxopiperidin-3-yl)-3-fluorobenzyl)piperidin-4-yl)-6-methoxy-2H-indazol-5-yl)-3-(trifluoromethyl)benzamide] | 1000 to 1900
O=C1CCC(Nc2cccc(CN3CCC(n4cc(NC(=O)c5cnn6ccc(N7CCOCC7)nc56)c(C(F)F)n4)CC3)c2)C(=O)N1 (centres unmarked) [GT-05801, N-(3-(difluoromethyl)-1-(1-(3-((2,6-dioxopiperidin-3-yl)amino)benzyl)piperidin-4-yl)-1H-pyrazol-4-yl)-5-morpholinopyrazolo[1,5-a]pyrimidine-3-carboxamide] | 500 to 1000
Cc1ccc(-c2c(C)noc2C)cc1N(CC1CCN(Cc2ccc(N3CCC(=O)NC3=O)cn2)CC1)c1ccc(C2(C#N)CC2)cc1 [GT-06411, 1-(4-((5-(3,5-dimethylisoxazol-4-yl)-2-methylphenyl)((1-((5-(2,4-dioxotetrahydropyrimidin-1(2H)-yl)pyridin-2-yl)methyl)piperidin-4-yl)methyl)amino)phenyl)cyclopropane-1-carbonitrile] | 500 to 1000
Cc1ccc(-c2c(C)noc2C)cc1N(CC1CCN(Cc2ccc(N3CCC(=O)NC3=O)cc2)CC1)c1ccc(C2(C#N)CC2)cc1 [GT-04844, 1-(4-((5-(3,5-dimethylisoxazol-4-yl)-2-methylphenyl)((1-(4-(2,4-dioxotetrahydropyrimidin-1(2H)-yl)benzyl)piperidin-4-yl)methyl)amino)phenyl)cyclopropane-1-carbonitrile] | 500 to 1000
CCc1cc2c(cc1N1CCC(N3CCN(Cc4ccc(N5CCC(=O)NC5=O)cn4)CC3)CC1)C(C)(C)c1[nH]c3cc(C#N)ccc3c1C2=O [GT-07311, 8-(4-(4-((5-(2,4-dioxotetrahydropyrimidin-1(2H)-yl)pyridin-2-yl)methyl)piperazin-1-yl)piperidin-1-yl)-9-ethyl-6,6-dimethyl-11-oxo-6,11-dihydro-5H-benzo[b]carbazole-3-carbonitrile] | 500 to 1000
O=C1CCN(c2ccc(CN3CCC(n4cc(NC(=O)c5cnn6ccc(N7CCOCC7)nc56)c(C(F)F)n4)CC3)nc2)C(=O)N1 [GT-05799, N-(3-(difluoromethyl)-1-(1-((5-(2,4-dioxotetrahydropyrimidin-1(2H)-yl)pyridin-2-yl)methyl)piperidin-4-yl)-1H-pyrazol-4-yl)-5-morpholinopyrazolo[1,5-a]pyrimidine-3-carboxamide] | < 500
O=C1CCN(c2ccc(CN3CCC(n4cc(NC(=O)c5cnn6ccc(N7C[C@H]8C[C@@H]7CO8)nc56)c(C(F)F)n4)CC3)cc2)C(=O)N1 [GT-05029, 5-((1R,4R)-2-oxa-5-azabicyclo[2.2.1]heptan-5-yl)-N-(3-(difluoromethyl)-1-(1-(4-(2,4-dioxotetrahydropyrimidin-1(2H)-yl)benzyl)piperidin-4-yl)-1H-pyrazol-4-yl)pyrazolo[1,5-a]pyrimidine-3-carboxamide] | 500 to 1000
Cc1cc(Nc2ncc(Cl)c(Nc3ccccc3S(=O)(=O)C(C)C)n2)c(OC(C)C)cc1C1CCN(Cc2cc(C3CCC(=O)NC3=O)cnc2F)CC1 (centres unmarked) [GT-07598, 3-(5-((4-(4-((5-chloro-4-((2-(isopropylsulfonyl)phenyl)amino)pyrimidin-2-yl)amino)-5-isopropoxy-2-methylphenyl)piperidin-1-yl)methyl)-6-fluoropyridin-3-yl)piperidine-2,6-dione] | 500 to 1000
CN(Cc1ccnc(N2CCC(=O)NC2=O)c1)C1CCN(c2ccc(-c3cc(F)c4c(c3)C(=O)N(C(C(=O)Nc3nccs3)c3ncn5c3CCC5)C4)cc2)CC1 (centres unmarked) [GT-07383, 2-(6,7-dihydro-5H-pyrrolo[1,2-c]imidazol-1-yl)-2-(6-(4-(4-(((2-(2,4-dioxotetrahydropyrimidin-1(2H)-yl)pyridin-4-yl)methyl)(methyl)amino)piperidin-1-yl)phenyl)-4-fluoro-1-oxoisoindolin-2-yl)-N-(thiazol-2-yl)acetamide] | 500 to 1000
COC1CCN(c2nccc(Nc3cc4c(cn3)c(N3CCN(Cc5ccc(C6CCC(=O)NC6=O)cc5)CC3)nn4C(C)C)n2)CC1 (centres unmarked) [GT-06036, 3-(4-((4-(1-isopropyl-6-((2-(4-methoxypiperidin-1-yl)pyrimidin-4-yl)amino)-1H-pyrazolo[4,3-c]pyridin-3-yl)piperazin-1-yl)methyl)phenyl)piperidine-2,6-dione] | 1000 to 1900
CN1CCN([C@@H]2CCCN(c3cnc(C(N)=O)c(Nc4ccc(C5CCN(Cc6ccc(C7CCC(=O)NC7=O)c(F)c6)CC5)cc4)n3)C2)C1=O (stereo partly drawn) [GT-04799, 3-((4-(1-(4-(2,6-dioxopiperidin-3-yl)-3-fluorobenzyl)piperidin-4-yl)phenyl)amino)-5-((R)-3-(3-methyl-2-oxoimidazolidin-1-yl)piperidin-1-yl)pyrazine-2-carboxamide] | < 500
COC1CCN(c2nccc(Nc3cc4c(cn3)c(N3CCC(N(C)Cc5cccc(N6CCC(=O)NC6=O)c5)CC3)nn4C(C)C)n2)CC1 [GT-06122, 1-(3-(((1-(1-isopropyl-6-((2-(4-methoxypiperidin-1-yl)pyrimidin-4-yl)amino)-1H-pyrazolo[4,3-c]pyridin-3-yl)piperidin-4-yl)(methyl)amino)methyl)phenyl)dihydropyrimidine-2,4(1H,3H)-dione] | 1000 to 1900

Source: patent US20260274829A1, “NEW E3 UBIQUITIN LIGASE LIGAND, PROTEIN DEGRADATION AGENT AND USE THEREOF” (GLUETACS THERAPEUTICS (SHANGHAI) CO., LTD., priority 2023, published 2026)
